Patent US7146204B2, “Method and apparatus for quantitatively evaluating a kidney” (Yeda Research and Development Co., Ltd., priority 2002, dated 2006)
“Also recorded” adds a separate entry of the source.

Legend:
rat kidney [1] = assay: dynamic 23Na MRI of renal sodium distribution after bolus injection of diuretic; assay type: in vivo; settings: for characteristic time constant of sodium decay in the inner medulla: dynamic 23Na MRI after bolus injection, fitted to Equation 1, n=7; for decrease in sodium level in the inner medulla: relative to pre-treatment, diuresis steady state level, n=7
Procedure: Materials and Methods—Animals: Studies were performed on female Lewis rats, 2–4 months old and weighing 250–300 g, that had free access to food and water. […] All animal protocols and maintenance procedures were in accordance with the guidelines of the Committee on Animals of the Weizmann Institute of Science, and were approved by this Committee. […] Only one diuretic was injected into each rat. […] Image analysis: Analysis of the kidney images was performed on selected regions of interest (ROIs) in the outer, median and inner parts of the kidney, representing the cortex, outer and inner medulla, respectively. The ROIs were defined on the corresponding coronal proton image recorded prior to the sodium images, at the same spatial resolution. The average digitized pixel intensity for each ROI was measured, and the sodium gradient was assessed by averaging the ratio of the sodium signal intensity between the inner and the outer medulla, and between the inner medulla and the cortex. […] In this analysis, the signal intensity in each pixel was measured from the cortex to the inner medulla along the corticomedullary axis. This yielded a graph of pixel signal intensity versus the distance of the pixel from the cortex. In the dynamic study, the average signal intensities of the inner medulla and the cortex ROIs, defined on the proton image, were measured in sodium images recorded sequentially and were then plotted against time. Statistical analysis to evaluate differences between pixels or ROIs in the same kidney, or before and after diuretic treatment, were performed by a two-tailed paired Student's t-test; otherwise, the unpaired version of this test was used. Results are presented as mean±SEM.

[2] = urine sodium concentration by 23Na NMR spectroscopy; assay type: in vivo, rat; settings: urine collected from 15 min after injection, n=3
Procedure: (§1) Mannitol solution (20%, 1 ml) and saline solution (0.9% NaCl, 1 ml) were injected as a bolus into the tail vein. Only one diuretic was injected into each rat.
Urine sodium: Urine samples of untreated (control) and diuretic rats were collected in a metabolic cage. Collection of the urine from the diuretic rats started 15 minutes after injection of the diuretic, when the urine flow was constant. The urine samples were then centrifuged, and the supernatants transferred to a 5 mm NMR tube placed in the center of a 10 mm NMR tube. The external tube was used as an external reference, and contained a solution of 120 mM NaCl and 5 mM of the shift reagent: thulium (III) 1,4,7,10-tetraacyclododecane-1,4,7,10-tetrakis (methylene phosphonate) (TmDOTP^5−) (Macrocyclics, Dallas, Tex., USA) reaching total [Na^+] of 150 mM. ^23Na NMR spectra were recorded with a Bruker DMX-400 spectrometer (Bruker, Rheinstetten, Germany), using a multinuclei broad band probe at 106 MHz by acquiring 10 transients with 90° pulses, pulse-to-acquisition time of delay (DE) of 6 μs, 0.47 sec repetition time (TR) and 0.27 sec acquisition time. Analysis of the ^23Na spectra was performed with an XWIN-NMR Bruker software package. Sodium concentration in the urine was calculated from the integrated area of its signal referenced to the integrated area of the shifted signal of the sodium in the external tube solution (150 mM).

rat kidney [3] = assay: steady state diuresis 23Na MRI of corticomedullary sodium gradient; assay type: in vivo; settings: for reduction in sodium content in the inner medulla (summary statement): after bolus injection; for change of the cortical-outer medullar sodium gradient versus control / cortical-outer medullar sodium gradient (slope): pixel-by-pixel analysis
Procedure: Materials and Methods—Animals: Studies were performed on female Lewis rats, 2–4 months old and weighing 250–300 g, that had free access to food and water. Before MRI scanning, the rats were anesthetized by an intraperitoneal injection of sodium pentobarbital at a dosage of 0.04 mg/g body wt. All animal protocols and maintenance procedures were in accordance with the guidelines of the Committee on Animals of the Weizmann Institute of Science, and were approved by this Committee.
as §1
In vivo MRI: ^1H and ^23Na spectra and images were recorded at 200 and 53 MHz, respectively with a 4.7 T Biospec spectrometer (Bruker, Rheinstetten, Germany) using a home-built 3 cm double-tuned surface coil. The rat was placed on the coil in a supine position, keeping the estimated kidney position approximately in the middle of the coil. 3D ^1H gradient echo images were recorded to localize the exact kidney position, using TE/TR of 6/30 ms FOV of 12×12×3.2 cm and a matrix of 256×256×32. For defining the regions of interest (ROI), 3D ^1H images were recorded with the same spatial resolution as that of the sodium images.
In the “steady state” studies, sodium images were recorded prior to injection of the diuretic (control measurement) and fifteen minutes after its injection. 3D ^23Na gradient echo images were recorded using a TE/TR of 3.1/60 ms and a 90° OSIRREAD adiabatic pulse, FOV of 12×12×8 cm, and a matrix of 128×128×16 with 10 or 20 scans (20 or 40 min, respectively).
Image analysis: Analysis of the kidney images was performed on selected regions of interest (ROIs) in the outer, median and inner parts of the kidney, representing the cortex, outer and inner medulla, respectively. The ROIs were defined on the corresponding coronal proton image recorded prior to the sodium images, at the same spatial resolution. The average digitized pixel intensity for each ROI was measured, and the sodium gradient was assessed by averaging the ratio of the sodium signal intensity between the inner and the outer medulla, and between the inner medulla and the cortex.
In addition, a pixel-by-pixel analysis was performed, in order to assess the behavior of the NMR sodium signal along the corticomedullary axis. In this analysis, the signal intensity in each pixel was measured from the cortex to the inner medulla along the corticomedullary axis. This yielded a graph of pixel signal intensity versus the distance of the pixel from the cortex. In the dynamic study, the average signal intensities of the inner medulla and the cortex ROIs, defined on the proton image, were measured in sodium images recorded sequentially and were then plotted against time.
Statistical analysis to evaluate differences between pixels or ROIs in the same kidney, or before and after diuretic treatment, were performed by a two-tailed paired Student's t-test; otherwise, the unpaired version of this test was used. Results are presented as mean±SEM.
In-vivo MRI: ^1H and ^23Na images and spectra were recorded at 200 and 53 MHz respectively with a 4.7 T Biospec spectrometer (Bruker, Karlsrhue, Germany) using a home built 3-cm, ^1H and ^23Na tuned surface coil. The rat was placed on the coil in a supine position with the kidney positioned in the middle of the coil. Axial and coronal 3D ^1H gradient echo images were recorded for localization of the kidney using an echo time/repetition time (TE/TR) of 6/30 ms FOV of 12×12×3.2 cm and matrix of 256×256×32. 3D gradient echo ^23Na images were recorded using (TE/TR) of 1.7/60 ms and a 90° OSIRREAD adiabatic pulse, field of view (FOV) of 12×12×8 […], and matrix of 128×128×16, with 20 scans (40 min).
The sodium image was analyzed by a pixel by pixel analysis that was performed in order to assess the behavior of the NMR sodium signal along the corticomedullary axis.

rat kidney [4] = assay: as above; assay type: in vivo; settings: mannitol (1 ml, 0.1N), n=7
[5] = steady state diuresis, furosemide 10 mg/kg body wt, n=7

NS(=O)(=O)c1cc(C(=O)O)c(NCc2ccco2)cc1Cl [furosemide]
characteristic time constant of sodium decay in the inner medulla (rat kidney [1]): 6.1 ± 0.8 min
decrease in sodium level in the inner medulla (rat kidney [1]; dynamic study): 44±6%
increase of urine sodium concentration compared to the control [2]: 50±5%
reduction in sodium content in the inner medulla (summary statement) (rat kidney [3]; diuretic steady state): 50%
change of the cortical-outer medullar sodium gradient versus control (rat kidney [3]; diuresis steady state): five-fold reduction
cortical-outer medullar sodium gradient (slope) (rat kidney [3]; diuresis steady state, n=7): 0.10±0.01 a.u.×mm^−1
cortico-outer medullar sodium gradient during furosemide diuresis (rat kidney [3]; furosemide steady state diuresis, 10 mg/kg wt, n=7): 0.10±0.01 a.u×mm^−1
effect on the corticomedullary sodium gradient (rat kidney [3]; steady state diuresis): almost completely cancelled; also recorded: almost complete cancellation
decrease in sodium signal intensity in the inner medulla (rat kidney [3]; steady state diuresis, furosemide 1 mg/kg body weight, n=3): 10±2%
decrease in sodium signal intensity in the inner medulla (rat kidney [3]; steady state diuresis, furosemide 7 mg/kg body weight, n=4): 40±4%
decrease of average sodium signal intensity in the inner medulla (rat kidney [3]; [5]): 47±5%
decrease of average sodium signal intensity in the outer medulla (rat kidney [3]; [5]): 6±2%
increase of average sodium signal intensity in the cortex (rat kidney [3]; [5]): 25%±3%

OC[C@@H](O)[C@@H](O)[C@H](O)[C@H](O)CO [mannitol]
characteristic time constant of sodium decay in the inner medulla (rat kidney [1]): 2.5 ± 0.4 min
total increase in sodium concentration in the cortex (rat kidney [1]; dynamic study, after bolus injection): about 25%
rate of sodium reduction in the inner medulla relative to furosemide (rat kidney [1]; dynamic study, p=0.002): twice as rapidly; also recorded: more than twofold faster; also recorded: twofold faster decay
decrease in sodium level in the inner medulla (rat kidney [1]; dynamic study): 52±5%
decrease of urine sodium concentration compared to the control [2]: 49±3%
decrease of sodium concentration in the inner medulla (rat kidney [4]): 52±1%
increase of sodium signal intensity in the cortex (rat kidney [4]): 20±2%
increase of sodium signal intensity in the outer medulla (rat kidney [4]): 13±1%
reduction in sodium content in the inner medulla (summary statement) (rat kidney [3]; diuretic steady state): 50%
cortex to outer medulla sodium gradient relative to furosemide induced diuresis (rat kidney [3]; diuresis steady state): fivefold higher
change of the cortical-outer medullar sodium gradient versus control (rat kidney [3]; diuresis steady state): remained similar to that seen in control kidney
cortical-outer medullar sodium gradient (slope) (rat kidney [3]; diuresis steady state, n=7): 0.45±0.12 a.u.×mm^−1
change of the cortical-outer medullar sodium gradient versus control (rat kidney [3]; diuresis steady state, listed as Mannitol): did not affect
sodium concentration in the outer medulla compared to control (rat kidney [3]; diuretic steady state): increased compared to control
effect on the corticomedullary sodium gradient (rat kidney [3]; steady state diuresis): marked breakdown
